Reference: patent US8815592B2, “Methods and compositions related to dopaminergic neuronal cells” (Research Development Foundation, priority 2010, dated 2014)
Counter-ions that a name gives are not always drawn.

Legend:
[1] = tested on: Engineered neural tissues (ENTs); experiment: Neurotoxicology testing platform, electrical activity of engineered neural tissues; type: cell-based, mouse; conditions: ENTs (FIG. 13)
Protocol: Engineered neural tissues (ENTs) (a similar scheme could be applied to dopaminergic neurons provided according to certain aspects of the present invention) can be used for establishment of a neurotoxicology testing platform (FIG. 12). […] Mouse ENTs differentiated for 21 days were exposed to putative neurotoxic for 24 hours and spontaneous electrical activity was measured for the neurotoxicity testing (FIG. 14). Electrophysiological characterizations of ENTs include characterization of spontaneous activity such as spike frequency, spike amplitude, burst frequency (number of bursts per second), or number of spikes per burst, or characterization of evoked filed potentials such as amplitude of responses, paired-pulse inhibition, or input/output curve. The electrophysiological characterization of ENTs can be carried out by a multi-electrode array (FIG. 16).

[2] = molecular target: T1, dopaminergic transporter DAT (Mus musculus, UniProt Q61327); experiment: [3H] Win 35,428 binding on DAT receptor of ES-derived dopaminergic neurons, with and without GBR 12909; conditions: cells incubated with 10 μm GBR 12909 hydrochloride; 5 nM ligand; 6 well plates
T1 construct: After 16 days of differentiations, cells were incubated with [^3H]; Win35, 428 for 1 hour; endogenous in cells; host or cells: dopaminergic neurons differentiated from mouse embryonic stem cells (CGR8 line)
T1 sequence (Q61327 whole entry): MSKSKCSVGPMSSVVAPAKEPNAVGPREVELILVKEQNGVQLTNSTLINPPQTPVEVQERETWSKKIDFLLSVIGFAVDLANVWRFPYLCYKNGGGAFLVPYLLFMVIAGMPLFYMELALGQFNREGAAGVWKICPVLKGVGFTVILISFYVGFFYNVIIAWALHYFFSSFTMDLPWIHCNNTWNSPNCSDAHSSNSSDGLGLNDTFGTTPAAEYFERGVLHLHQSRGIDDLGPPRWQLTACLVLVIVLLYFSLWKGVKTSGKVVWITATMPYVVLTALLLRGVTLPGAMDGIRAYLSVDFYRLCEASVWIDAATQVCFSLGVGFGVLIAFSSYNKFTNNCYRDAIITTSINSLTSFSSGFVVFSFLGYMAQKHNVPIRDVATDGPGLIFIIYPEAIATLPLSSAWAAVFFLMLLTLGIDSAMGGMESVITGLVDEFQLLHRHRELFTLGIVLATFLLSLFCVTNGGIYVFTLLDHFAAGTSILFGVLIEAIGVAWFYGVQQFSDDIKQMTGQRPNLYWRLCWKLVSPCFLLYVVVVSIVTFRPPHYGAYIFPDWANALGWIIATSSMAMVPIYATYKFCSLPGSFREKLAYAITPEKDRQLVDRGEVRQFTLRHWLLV
Protocol: Cells were incubated on binding buffer containing 5 nM of the ligand at different time (30 to 60 minutes), with and without 10 μm of GBR 12909 hydrochloride. […] Radioactivity measured by liquid scintillation counter (WALLAC).
Win 35,428 binding to DAT receptor and DA-neurons in 96-well plate, cells were plated at the density of 60 cells/well.
After 16 days of differentiations, cells were incubated with [^3H] Win35, 428 for 1 hour and then washed by binding buffer for 1 minute, following by direct counting using liquid scintillation counter (WALLAC).
In detail, the binding assay was performed at 4° C. in phosphate-buffered saline (PBS) (Invitrogen/Gibco) containing 0.32 M sucrose with Ca^2+ and Mg^2+. Cells in each well were washed one time with 0.5 ml of phosphatebuffered. Then incubated at various time (30 to 60 min) with various amounts (5 to 10 nM) of [^3H] Win 35,428. The non specific binding was determined in the presence or not of 10 μM of GBR-12909 hydrochloride. The incubation was stopped by rinsing the cells three times with ice-cold buffer to eliminate non-linked [^3H] Win 35,428 and removal of cells. Cells were detached by a rake and transferred into a 96 well plate. Radioactivity was measured by a liquid scintillation counter (WALLAC).

For `COc1cc2c(c(OC)c1OC)-c1ccc(OC)c(=O)cc1[C@@H](NC(C)=O)CC2` [colchicine], the epileptogenic activity [1] was “demonstrated”.

For `Fc1ccc(C(OCCN2CCN(CCCc3ccccc3)CC2)c2ccc(F)cc2)cc1` [GBR 12909 hydrochloride], the “non-specific binding as share of the total binding of [3H] Win 35,428” value [2] was 50%.
